Where a SMILES comes first, the peptide text is derived from it. The star is where a group is joined. NHPhenethyl = c1ccc(CCN*)cc1; Cbz = O=C(OCc1ccccc1)*; Boc = CC(C)(C)OC(=O)*

The target in one assay is T1, NS3 protease domain complexed to a modified form of the NS4A peptide (Pep4AK) (Hepatitis C virus genotype 1b, UniProt P26663).
T1 construct: NS3 protease domain (residues 1027–1206 of the HCV polyprotein)
T1 sequence (P26663 1027-1206, other chains not shown): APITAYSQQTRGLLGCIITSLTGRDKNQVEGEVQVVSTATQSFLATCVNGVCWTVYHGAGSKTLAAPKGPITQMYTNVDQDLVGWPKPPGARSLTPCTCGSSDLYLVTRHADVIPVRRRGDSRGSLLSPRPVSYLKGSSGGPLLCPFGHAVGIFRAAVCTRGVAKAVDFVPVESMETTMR
Kind of assay: HCV NS3 protease domain/NS4A cofactor peptide assay (Assay B). The following applies: NS3 protease domain/NS4A cofactor peptide assay; read-out: Assay B (IC50 class). The format is biochemical.
As to `CC(C)C[C@H](NC(=O)C1(Cc2cccc(C(=O)O)c2)Cc2ccccc2N1)C(=O)N[C@@H](CS)C(=O)NCCc1ccc(C(=O)O)cc1` (mixture of isomers) [Compound 701], the IC50 is below 100 µM.
Still for that read-out and setting: with `CC(C)C[C@H](NC(=O)C1(Cc2ccc(C(=O)O)s2)Cc2ccccc2N1)C(=O)N[C@@H](CS)C(=O)NCCc1ccc(C(=O)O)cc1` (mixture of isomers) [Compound 703] the figure was below 100 µM.
Still for that read-out and setting: the result for `CC(C)C[C@H](NC(=O)C1(Cc2ccc(C(=O)O)cc2)Cc2ccccc2N1)C(=O)N[C@@H](CS)C(=O)NCCc1ccc(C(=O)O)cc1` (single isomer, unassigned) [Compound 702] reads below 100 µM; that for `CC(C)C[C@H](NC(=O)C1(Cc2ccc(C(=O)O)s2)CCc2ccccc2N1)C(=O)N[C@@H](CC(F)F)C(=O)NCCc1ccc(C(=O)O)cc1Cl` (single isomer, unassigned) [Compound 711a], below 100 µM; that for `CC(C)C[C@H](NC(=O)C1(Cc2cccc(C(=O)O)c2)CCc2ccccc2N1)C(=O)N[C@@H](CC(F)F)C(=O)NCCc1ccc(C(=O)O)cc1Cl` (single isomer, unassigned) [Compound 712a], below 100 µM.
Same read-out and setting: the result for `CC(C)C[C@H](NC(=O)C1(Cc2ccsc2C(=O)O)CCc2ccccc2N1)C(=O)N[C@@H](CC(F)F)C(=O)NCCc1c(F)cc(C(=O)O)cc1F` (single isomer, unassigned) [Compound 713] reads below 100 µM.
On to `CC(C)C[C@H](NC(=O)C1(Cc2ccsc2C(=O)O)CCc2ccccc2N1)C(=O)N[C@@H](CC(F)F)C(=O)NCCc1cccc(/C=C/C(=O)O)c1` (single isomer, unassigned) [Compound 714], for which the IC50 was below 100 µM.

The same assay, now with this note: Table 1; NS3 protease domain/Pep4AK, 4AB peptide substrate; read-out: Assay B.
Consider `CC(C)COC(=O)N[C@@H](CCC(=O)O)C(=O)N[C@@H](CC(C)C)C(=O)N[C@@H](CS)C(=O)NCC(O)c1ccccc1` (mixture of isomers) [Compound 106], for which the IC50 is below 100 µM.
Same read-out and setting: the result for `CC(C)COC(=O)N[C@@H](CCC(=O)O)C(=O)N[C@@H](CC(C)C)C(=O)N[C@@H](CS)C(=O)NCC(C)c1ccccc1` (mixture of isomers) [Compound 107] reads below 100 µM; that for `CC(C)C[C@H](NC(=O)[C@H](CCC(=O)O)NC(=O)OCc1ccccc1)C(=O)N[C@@H](CS)C(=O)NCCc1ccccc1` [Compound 101] (Cbz-Glu-Leu-Cys-NHPhenethyl), below 100 µM; that for `CC(C)C[C@H](NC(=O)[C@@H](NC(=O)OCc1ccc(C(=O)O)cc1)C(C)C)C(=O)N[C@@H](CS)C(=O)NCCc1ccccc1` [Compound 102], below 100 µM.
Same read-out and setting: the result for `CC(C)CC(NC(=O)C(CCC(=O)O)NC(=O)OC(C)(C)C)C(=O)NC(CS)C(=O)NCCc1ccccc1` (stereo not drawn) [Compound 103] (Boc-Glu-Leu-Cys-NHPhenethyl; configuration not given here) reads below 100 µM; that for `CC(C)COC(=O)NC(CCC(=O)O)C(=O)NC(CC(C)C)C(=O)NC(CS)C(=O)NCCc1ccccc1` (centres unmarked) [Compound 104], below 100 µM.
Still for that read-out and setting: the result for `CC(C)CC(NC(=O)C(CCC(=O)O)NC(=O)OC(C)(C)C)C(=O)NC(CC(F)F)C(=O)NCCc1ccccc1` (centres unmarked) [Compound 105] reads below 100 µM; that for `CC(C)COC(=O)N[C@@H](CCC(=O)O)C(=O)N[C@@H](CC(C)C)C(=O)N[C@@H](CS)C(=O)NC[C@H](C)c1ccccc1` [Compound 108], below 100 µM.
Regarding `CC(C)COC(=O)N[C@@H](CCC(=O)O)C(=O)N[C@@H](CC(C)C)C(=O)N[C@@H](CS)C(=O)NCC1(c2ccccc2)CC1` [Compound 109], the IC50 was below 100 µM.
Same read-out and setting: the result for `CC(C)COC(=O)NC(CCC(=O)O)C(=O)NC(CC(C)C)C(=O)NC(CS)C(=O)NCC1(c2ccccc2)CCC1` (centres unmarked) [Compound 110] reads below 100 µM; that for `CC(C)COC(=O)N[C@@H](CCC(=O)O)C(=O)N[C@@H](CC(C)C)C(=O)N[C@@H](CS)C(=O)NCC(CC(=O)O)c1ccc(Cl)cc1` (some centres unmarked) [Compound 111], below 100 µM; that for `CC(C)COC(=O)NC(CCC(=O)O)C(=O)NC(CC(C)C)C(=O)NC(CS)C(=O)NCCc1ccccc1F` (centres unmarked) [Compound 112], below 100 µM.
Same read-out and setting: the result for `CC(C)COC(=O)NC(CCC(=O)O)C(=O)NC(CC(C)C)C(=O)NC(CS)C(=O)NCCc1ccccc1Cl` (centres unmarked) [Compound 113] reads below 100 µM; that for `CC(C)CC(NC(=O)C(CCC(=O)O)NC(=O)OCc1ccccc1)C(=O)NC(CS)C(=O)NCCc1ccccc1Cl` (centres unmarked) [Compound 116], below 100 µM.
The same measure, in the same setting: the result for `CC(C)COC(=O)NC(CCC(=O)O)C(=O)NC(CC(C)C)C(=O)NC(CS)C(=O)NCCc1ccccc1Br` (centres unmarked) [Compound 117] reads below 100 µM; that for `Cc1ccccc1CCNC(=O)C(CS)NC(=O)C(CC(C)C)NC(=O)C(CCC(=O)O)NC(=O)OCC(C)C` (centres unmarked) [Compound 118], below 100 µM; that for `COc1ccccc1CCNC(=O)C(CS)NC(=O)C(CC(C)C)NC(=O)C(CCC(=O)O)NC(=O)OCC(C)C` (centres unmarked) [Compound 119], below 100 µM.
As for `CCOc1ccccc1CCNC(=O)C(CS)NC(=O)C(CC(C)C)NC(=O)C(CCC(=O)O)NC(=O)OCC(C)C` (centres unmarked) [Compound 120], the IC50 was below 100 µM.
Still for that read-out and setting: the result for `CC(C)COC(=O)NC(CCC(=O)O)C(=O)NC(CC(C)C)C(=O)NC(CS)C(=O)NCCc1ccccc1C(F)(F)F` (centres unmarked) [Compound 121] reads below 100 µM; that for `COC(=O)c1ccccc1CCNC(=O)C(CS)NC(=O)C(CC(C)C)NC(=O)C(CCC(=O)O)NC(=O)OCC(C)C` (centres unmarked) [Compound 122], below 100 µM.
In the case of `CC(C)COC(=O)NC(CCC(=O)O)C(=O)NC(CC(C)C)C(=O)NC(CS)C(=O)NCCc1ccccc1Oc1ccccc1` (centres unmarked) [Compound 123], the IC50 was below 100 µM.
On the same count and under the same terms, with `CC(C)COC(=O)NC(CCC(=O)O)C(=O)NC(CC(C)C)C(=O)NC(CS)C(=O)NCCc1ccccc1OCc1ccccc1` (centres unmarked) [Compound 124] the figure was below 100 µM; with `CC(C)COC(=O)NC(CCC(=O)O)C(=O)NC(CC(C)C)C(=O)NC(CS)C(=O)NCCc1cccc(F)c1` (centres unmarked) [Compound 126], below 100 µM; with `CC(C)COC(=O)NC(CCC(=O)O)C(=O)NC(CC(C)C)C(=O)NC(CS)C(=O)NCCc1cccc(Cl)c1` (centres unmarked) [Compound 127], below 100 µM.
The same measure, in the same setting: the result for `CC(C)COC(=O)NC(CCC(=O)O)C(=O)NC(CC(C)C)C(=O)NC(CS)C(=O)NCCc1cccc(Br)c1` (centres unmarked) [Compound 128] reads below 100 µM; that for `CC(C)COC(=O)NC(CCC(=O)O)C(=O)NC(CC(C)C)C(=O)NC(CS)C(=O)NCCc1cccc(O)c1` (centres unmarked) [Compound 129], below 100 µM; that for `Cc1cccc(CCNC(=O)C(CS)NC(=O)C(CC(C)C)NC(=O)C(CCC(=O)O)NC(=O)OCC(C)C)c1` (centres unmarked) [Compound 130], below 100 µM.
With `CC(C)COC(=O)NC(CCC(=O)O)C(=O)NC(CC(C)C)C(=O)NC(CS)C(=O)NCCc1cccc(C(F)(F)F)c1` (centres unmarked) [Compound 131], the IC50 is below 100 µM.
`COC(=O)c1cccc(CCNC(=O)C(CS)NC(=O)C(CC(C)C)NC(=O)C(CCC(=O)O)NC(=O)OCC(C)C)c1` (centres unmarked) [Compound 132]: the IC50 was below 100 µM.
On the same count and under the same terms, the result for `CC(C)COC(=O)N[C@@H](CCC(=O)O)C(=O)N[C@@H](CC(C)C)C(=O)N[C@@H](CS)C(=O)NCCc1cccc(/C=C/C(=O)O)c1` [Compound 134] reads below 10 µM.
Same read-out and setting: the result for `CCOC(=O)/C=C/c1cccc(CCNC(=O)[C@H](CS)NC(=O)[C@H](CC(C)C)NC(=O)[C@H](CCC(=O)O)NC(=O)OCC(C)C)c1` [Compound 135] reads below 100 µM; that for `CC(C)COC(=O)NC(CCC(=O)O)C(=O)NC(CC(C)C)C(=O)NC(CS)C(=O)NCCc1cccc(-c2ccccc2)c1` (centres unmarked) [Compound 136], below 100 µM; that for `CC(C)COC(=O)NC(CCC(=O)O)C(=O)NC(CC(C)C)C(=O)NC(CS)C(=O)NCCc1cccc(Oc2ccccc2)c1` (centres unmarked) [Compound 137], below 100 µM.
As to `CC(C)COC(=O)NC(CCC(=O)O)C(=O)NC(CC(C)C)C(=O)NC(CS)C(=O)NCCc1ccc(Cl)cc1` (centres unmarked) [Compound 138], the IC50 is below 100 µM.
On the same count and under the same terms, the result for `CC(C)COC(=O)NC(CCC(=O)O)C(=O)NC(CC(C)C)C(=O)NC(CS)C(=O)NCCc1ccc(Br)cc1` (centres unmarked) [Compound 139] reads below 100 µM; that for `Cc1ccc(CCNC(=O)C(CS)NC(=O)C(CC(C)C)NC(=O)C(CCC(=O)O)NC(=O)OCC(C)C)cc1` (centres unmarked) [Compound 140], below 100 µM; that for `COc1ccc(CCNC(=O)C(CS)NC(=O)C(CC(C)C)NC(=O)C(CCC(=O)O)NC(=O)OCC(C)C)cc1` (centres unmarked) [Compound 141], below 100 µM.
Still for that read-out and setting: the result for `COc1ccc(CCNC(=O)C(CS)NC(=O)C(CC(C)C)NC(=O)C(CCC(=O)O)NC(=O)OC(C)(C)C)cc1` (centres unmarked) [Compound 142] reads below 100 µM.
Take `COc1ccc(CCNC(=O)C(CS)NC(=O)C(CC(C)C)NC(=O)C(CCC(=O)O)NC(=O)OCc2ccccc2)cc1` (centres unmarked) [Compound 143]: the IC50 was below 100 µM.
The same measure, in the same setting: with `CCOc1ccc(CCNC(=O)C(CS)NC(=O)C(CC(C)C)NC(=O)C(CCC(=O)O)NC(=O)OCC(C)C)cc1` (centres unmarked) [Compound 144] the figure was below 100 µM; with `CC(C)COC(=O)NC(CCC(=O)O)C(=O)NC(CC(C)C)C(=O)NC(CS)C(=O)NCCc1ccc(Oc2ccccc2)cc1` (centres unmarked) [Compound 145], below 100 µM; with `CC(C)COC(=O)NC(CCC(=O)O)C(=O)NC(CC(C)C)C(=O)NC(CS)C(=O)NCCc1ccc(O)cc1` (centres unmarked) [Compound 146], below 100 µM.
For the compound `CC(C)COC(=O)NC(CCC(=O)O)C(=O)NC(CC(C)C)C(=O)NC(CS)C(=O)NCCc1ccc([N+](=O)[O-])cc1` (centres unmarked) [Compound 147], the IC50 is below 100 µM.
On the same count and under the same terms, the result for `CC(C)COC(=O)NC(CCC(=O)O)C(=O)NC(CC(C)C)C(=O)NC(CS)C(=O)NCCc1ccc(C(C)(C)C)cc1` (centres unmarked) [Compound 148] reads below 100 µM.

The same assay, now with this note: Table 2; NS3 protease domain/Pep4AK; read-out: Assay B.
Turning to `CC(C)C[C@H](NC(=O)[C@H](CCC(=O)O)NC(=O)C1CCC(C(=O)O)CC1)C(=O)N[C@@H](CS)C(=O)NCCc1ccccc1Cl` (mixture of isomers) [Compound 233], the IC50 was below 100 µM.

Staying with this assay, now noted: Table 4; NS3 protease domain/Pep4AK; read-out: Assay B.
On to `CC(C)COC(=O)N[C@@H](CCC(=O)O)C(=O)NC(CC(F)(F)F)C(=O)N[C@@H](CS)C(=O)NCCc1ccc(C(=O)O)cc1` (mixture of isomers) [Compound 403], for which the IC50 was below 100 µM.

(Values after patent US7119073B2, “Peptides and their use as inhibitors of hepatitis C virus ns3 protease” (Istituto Di Ricerche Di Biologia Molecolare P. Angeletti SpA, priority 2001, dated 2006).)
